Patent publication US7855196B2 (priority 2005, dated 2010)
Where two headings read alike, the source gives them in different places.

Legend:
[1] = Sedation / side effects observed in treated patients (clinical case examples)

Cc1nnc2n1-c1ccc(Cl)cc1C(c1ccccc1)=NC2 [alprazolam, 8-chloro-1-methyl-6-phenyl-4H-s-triazolo[4,3-a][1,4] benzodiazepine]
pain rating after treatment (human, in vivo): 4/10 | pain remission (human, in vivo): increased period of pain remission | pain response (human, in vivo): sustained results | sedation limiting augmentation of dosage ([1]; Example 1: alprazolam 0.5 mg TID and 2 mg HS): severe patient sedation | sedation limiting augmentation of dosage ([1]; Example 2: alprazolam 0.25 mg QID): severe sedation | side effects ([1]; Example 8: alprazolam 5 mg/day): experienced alprazolam side effects

CCOC(=O)c1ncn2c1CN(C)C(=O)c1cc(F)ccc1-2 [flumazenil]
low back pain after injection (Example 3: phantom-like pain, patient on alprazolam 6 mg a day, flumazenil 100 μg, 5 minutes after injection, before 7/10): 5/10 | effect on midazolam response to pain (Example 4: flumazenil 200 μg iv 5 minutes after midazolam 2 mg iv (ratio 10:1)): without altering the midazolam response to pain | pain after treatment (Example 5: flumazenil 200 μg iv after midazolam 2 mg iv, before 3/10): pain disappeared | pain 25 minutes after treatment (Example 8: further flumazenil 300 μg iv after midazolam 5 mg and flumazenil 500 μg, 25 minutes after treatment): 4/10 | pain rating after treatment (Example 8: further flumazenil 300 μg iv ten minutes later, after 5 minutes, before 5/10): 3/10 | pain level while moving arm (human, in vivo, iv): 1/10

Cc1ncc2n1-c1ccc(Cl)cc1C(c1ccccc1F)=NC2 [midazolam]
improvement of pain (human, in vivo, iv): 40% | level of pain after treatment (human, in vivo, iv): 3/10 | pain level after treatment (human, in vivo, iv): 0/10 | pain rating after treatment (human, in vivo, iv): 3/10 | sedation ([1]; Example 2: midazolam 2 mg iv): experienced sedation | sedation ([1]; Example 5: midazolam 2 mg iv): did not present any signs of sedation
